Calls of active or inactive are those of the source. No cut-off for these calls is given here.
Columns and labels:
[1] = system: Influenza A virus; assay: Antiviral activity against 10^2 EID50 influenza A/Vietnam/1203/04 H5N1 virus inoculated ferrets assessed as inhibition of virus spread in liver at 5 mg/kg after 4 hrs of inoculum for 5 days; format: functional, organism-based; parameters: dose 5 mg/kg
[2] = system: Influenza A virus; assay: Survival of 10 EID50 influenza A/Vietnam/1203/04 H5N1 virus inoculated ferrets at 5 mg/kg after 4 hrs of inoculum for 5 days; format: functional, organism-based; parameters: dose 5 mg/kg
[3] = system: Influenza A virus; assay: Survival of 10^2 EID50 influenza A/Vietnam/1203/04 H5N1 virus inoculated ferrets at 5 mg/kg after 4 hrs of inoculum for 5 days; format: functional, organism-based; parameters: dose 5 mg/kg
[4] = system: Influenza A virus; assay: Antiviral activity against 10 EID50 influenza A/Vietnam/1203/04 H5N1 virus inoculated ferrets assessed as day of death at 5 mg/kg after 4 hrs of inoculum for 5 days; format: functional
[5] = system: Influenza A virus; assay: Antiviral activity against 10^2 EID50 influenza A/Vietnam/1203/04 H5N1 virus inoculated ferrets assessed as day of death at 5 mg/kg after 4 hrs of inoculum for 5 days; format: functional
[6] = system: Influenza A virus; assay: Antiviral activity against 10 EID50 influenza A/Vietnam/1203/04 H5N1 virus inoculated ferrets assessed as weight loss at 5 mg/kg after 4 hrs of inoculum for 5 days; format: functional
[7] = system: Influenza A virus; assay: Antiviral activity against 10^2 EID50 influenza A/Vietnam/1203/04 H5N1 virus inoculated ferrets assessed as inhibition of viral replication in lungs at 5 mg/kg after 4 hrs of inoculum for 5 days; format: functional, organism-based; parameters: dose 5 mg/kg
[8] = system: Influenza A virus; assay: Antiviral activity against 10^2 EID50 influenza A/Vietnam/1203/04 H5N1 virus inoculated ferrets assessed as inhibition of virus spread in brain at 5 mg/kg after 4 hrs of inoculum for 5days; format: functional, organism-based; parameters: dose 5 mg/kg
[9] = system: Influenza A virus; assay: Antiviral activity against 10^2 EID50 influenza A/Vietnam/1203/04 H5N1 virus inoculated ferrets assessed as inhibition of virus spread in spleen at 5 mg/kg after 4 hrs of inoculum for 5 days; format: functional, organism-based; parameters: dose 5 mg/kg
[10] = system: Influenza A virus; assay: Antiviral activity against 10^2 EID50 influenza A/Vietnam/1203/04 H5N1 virus inoculated ferrets assessed as inhibition of viral replication in small intestine at 5 mg/kg after 4 hrs of inoculum for 5 days; format: functional, organism-based; parameters: dose 5 mg/kg
[11] = system: Influenza A virus; assay: Survival of 10^2 EID50 influenza A/Vietnam/1203/04 H5N1 virus inoculated ferrets at 10 mg/kg after 24 hrs of inoculum for 5 days; format: functional, organism-based; parameters: dose 10 mg/kg
[12] = system: Influenza A virus; assay: Survival of 10^2 EID50 influenza A/Vietnam/1203/04 H5N1 virus inoculated ferrets at 25 mg/kg after 24 hrs of inoculum for 5 days; format: functional, organism-based; parameters: dose 25 mg/kg
[13] = system: Influenza A virus; assay: Antiviral activity against 10^2 EID50 influenza A/Vietnam/1203/04 H5N1 virus inoculated ferrets assessed as day of death at 10 mg/kg after 24 hrs of inoculum for 5 days; format: functional
[14] = system: Influenza A virus; assay: Survival of 10^6 EID50 influenza A/turkey/15/06 H5N1 virus inoculated ferrets at 10 mg/kg twice daily after 24 hrs inoculum for 5 days; format: functional, organism-based; parameters: dose 10 mg/kg; settings: Influenza A virus (A/Turkey/15/2006(H5N1))
[15] = system: Influenza A virus; assay: Antiviral activity against 10^6 EID50 influenza A/turkey/15/06 H5N1 virus inoculated ferrets assessed as viral titer in lungs at 10 mg/kg after 24 hrs of inoculum for 5 days; format: functional, Influenza A virus (A/Turkey/15/2006(H5N1))
[16] = system: Influenza A virus; assay: Antiviral activity against 10^6 EID50 influenza A/turkey/15/06 H5N1 virus inoculated ferrets assessed as viral titer in brain at 10 mg/kg after 24 hrs of inoculum for 5 days; format: functional, Influenza A virus (A/Turkey/15/2006(H5N1))
[17] = system: Influenza A virus; assay: Antiviral activity against 10^2 EID50 influenza A/Vietnam/1203/04 H5N1 virus inoculated ferrets assessed as day of death at 25 mg/kg after 24 hrs of inoculum for 5 days; format: functional
[18] = system: Influenza A virus; assay: Antiviral activity against 10^2 EID50 influenza A/Vietnam/1203/04 H5N1 virus inoculated ferrets assessed as maximal change in weight loss at 5 mg/kg after 4 hrs of inoculum for 5 days; format: functional
[19] = system: Influenza A virus; assay: Antiviral activity against 10 EID50 influenza A/Vietnam/1203/04 H5N1 virus inoculated ferrets assessed as increase in temperature at 5 mg/kg after 4 hrs of inoculum for 5 days; format: functional
[20] = system: Influenza A virus; assay: Antiviral activity against 10^2 EID50 influenza A/Vietnam/1203/04 H5N1 virus inoculated ferrets assessed as increase in temperature at 5 mg/kg after 4 hrs of inoculum for 5 days; format: functional
[21] = system: Influenza A virus; assay: Antiviral activity against 10^2 EID50 influenza A/Vietnam/1203/04 H5N1 virus inoculated ferrets assessed as weight loss at 10 mg/kg after 24 hrs of inoculum for 5 days; format: functional
[22] = system: Influenza A virus; assay: Antiviral activity against 10^2 EID50 influenza A/Vietnam/1203/04 H5N1 virus inoculated ferrets assessed as weight loss at 25 mg/kg after 24 hrs of inoculum for 5 days; format: functional
[23] = system: Influenza A virus; assay: Antiviral activity against 10^2 EID50 influenza A/Vietnam/1203/04 H5N1 virus inoculated ferrets assessed as increase in temperature at 10 mg/kg after 24 hrs of inoculum for 5 days; format: functional
[24] = system: Influenza A virus; assay: Antiviral activity against 10^2 EID50 influenza A/Vietnam/1203/04 H5N1 virus inoculated ferrets assessed as increase in temperature at 25 mg/kg after 24 hrs of inoculum for 5 days; format: functional
[25] = system: Influenza A virus; assay: Inhibition of 10^2 EID50 influenza A/Vietnam/1203/04 H5N1 virus replication in ferrets brain at 25 mg/kg after 24 hrs of inoculum for 5 days; format: functional, organism-based; parameters: dose 25 mg/kg
[26] = system: Influenza A virus; assay: Inhibition of influenza A/Vietnam/1203/04 virus replication in ferrets upper respiratory tract at 10 mg/kg twice daily after 24 hrs of inoculum for 5 days; format: functional, organism-based; parameters: dose 10 mg/kg
[27] = system: Influenza A virus; assay: Inhibition of 10^2 EID50 influenza A/Vietnam/1203/04 H5N1 virus replication in ferrets lungs at 10 mg/kg after 24 hrs of inoculum for 5 days; format: functional, organism-based; parameters: dose 10 mg/kg
[28] = system: Influenza A virus; assay: Inhibition of 10^2 EID50 influenza A/Vietnam/1203/04 H5N1 virus replication in ferrets liver at 10 mg/kg after 24 hrs of inoculum for 5 days; format: functional, organism-based; parameters: dose 10 mg/kg
[29] = system: Influenza A virus; assay: Inhibition of 10^2 EID50 influenza A/Vietnam/1203/04 H5N1 virus replication in ferrets spleen at 10 mg/kg after 24 hrs of inoculum for 5 days; format: functional, organism-based; parameters: dose 10 mg/kg
[30] = system: Influenza A virus; assay: Inhibition of 10^2 EID50 influenza A/Vietnam/1203/04 H5N1 virus replication in ferrets lungs at 25 mg/kg after 24 hrs of inoculum for 5 days; format: functional, organism-based; parameters: dose 25 mg/kg
[31] = system: Influenza A virus; assay: Inhibition of 10^2 EID50 influenza A/Vietnam/1203/04 H5N1 virus replication in ferrets liver at 25 mg/kg after 24 hrs of inoculum for 5 days; format: functional, organism-based; parameters: dose 25 mg/kg
[32] = system: Influenza A virus; assay: Inhibition of 10^2 EID50 influenza A/Vietnam/1203/04 H5N1 virus replication in ferrets spleen at 25 mg/kg after 24 hrs of inoculum for 5 days; format: functional, organism-based; parameters: dose 25 mg/kg
[33] = system: Influenza A virus; assay: Antiviral activity against 10^6 EID50 influenza A/turkey/15/06 H5N1 virus inoculated ferrets assessed as weight loss at 10 mg/kg twice daily after 24 hrs inoculum for 5 days; format: functional, Influenza A virus (A/Turkey/15/2006(H5N1))
[34] = system: Influenza A virus; assay: Antiviral activity against 10^6 EID50 influenza A/turkey/15/06 H5N1 virus inoculated ferrets assessed as increase in temperature at 10 mg/kg twice daily after 24 hrs inoculum for 5 days; format: functional, Influenza A virus (A/Turkey/15/2006(H5N1))

CCOC(=O)C1=C[C@@H](OC(CC)CC)[C@H](NC(C)=O)[C@@H](N)C1 [OSELTAMIVIR]
Activity [1]: inactive | Activity [2]: Active | Activity [3]: Active | Activity [4]: >21 days | Activity [5]: 21 days | Activity [6]: 8.8% | Activity [7]: Active | Activity [8]: inactive | Activity [9]: inactive | Activity [10]: Active | Activity [11]: inactive | Activity [12]: Active | Activity [13]: 7.3 days | Activity [14]: Active | log10EID50/g [15]: <0.75 | log10EID50/g [16]: <0.75 | Activity [17]: >21 days | Activity [18]: 20.4% | Activity [19]: 5% | Activity [20]: 3.4% | Activity [21]: 22.1% | Activity [22]: 13.4% | Activity [23]: 5.7% | Activity [24]: 6% | Activity [25]: inactive | Activity [26]: inactive | Activity [27]: Active | Activity [28]: Active | Activity [29]: Active | Activity [30]: Active | Activity [31]: Active | Activity [32]: Active | Activity [33]: 17.9% | Activity [34]: 6%

— ChEMBL document CHEMBL1147118, “Efficacy of oseltamivir therapy in ferrets inoculated with different clades of H5N1 influenza virus” (2007)
